Read-outs that look alike come from different tables or passages of the source.

Common to all, as to experiment: Cytotoxicity, WST-1 and nuclear morphology (Example 73)
What all share (type): cell-based

Experiment [1] has as its system normal rat kidney epithelial (NRK) cells. The settings on record: Rattus norvegicus. A digest of the protocol:
(§1)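 MOLM-13 (RPMI/FBS), NRK and H9c2 (DMEM/10% FBS) cells under 2% or 20% O2 at 37° C were exposed to analogues for 24 h (≤1% DMSO). Viability was read by WST-1, and cell death by Hoechst 33342 nuclear morphology; EC50 came from four-parameter regression.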

The subject of experiment [2] is rat cardiomyoblast (H9c2) cells. The conditions noted are these: Rattus norvegicus; H9c2, 19% O2, 24 hours of incubation; read-out: EC50 (μM) H9c2 19% O2. Summed up:
as §1

For experiment [3], the system named is human acute myeloid leukemia cell line MOLM-13. The settings on record: Homo sapiens. Summed up:
as §1

On to `COc1cccc2c1[n+]([O-])c1cccc(O)c1[n+]2O` [Example 5a, 1-hydroxy-6-methoxyphenazine 5.10-dioxide, reference compound], for which the half-maximal effective concentration (EC50) came out at 76 ± 14 µM in experiment [1] (2% O2, 24 hours of incubation, read-out: EC50 (μM) NRK 2% O2); 77 ± 11 µM in experiment [1] (19% O2, 24 hours of incubation, read-out: EC50 (μM) NRK 19% O2); 46 ± 4.1 µM in experiment [2]; 0.77 ± 0.13 µM in experiment [3] (MOLM-13, 2% O2, 24 hours of incubation, read-out: EC50 (μM) MOLM-13 2% O2); 1.4 ± 0.3 µM in experiment [3] (MOLM-13, 19% O2, 24 hours of incubation, read-out: EC50 (μM) MOLM-13 19% O2).

As a reminder, the EC50 is the concentration at which the effect is half-maximal.

Values taken from patent US11958842B2, “Substituted phenazines and methods of treating cancer and bacterial diseases” (Adjutec Pharma AS, priority 2016, dated 2024).
